According to publication PMC5675004 (Cancer cell, 2015):

Legend:
[1] = system: PPT CGNPs expressing vismodegib-resistant SMO mutants; assay: PPT CGNP proliferation, methyl-[3H]-thymidine incorporation; type: cell-based, mouse; conditions: for proliferation in the presence of SMO inhibitor: 500 nM of compound, SMO-mutant expressing cells
[2] = system: PPT CGNPs infected with SMO-WT and Cre; assay: as above; type: cell-based, mouse; conditions: for proliferation in the presence of SMO inhibitor: 500 nM of compound
[3] = system: activating SMO mutants; assay: [3H]-vismodegib binding to transfected HEK-293 cells; conditions: all activating mutants tested, cell surface expression comparable to SMO-WT
[4] = biological target: SMO-N219D (Homo sapiens, UniProt Q99835, N219D); assay: Gli-luciferase based Hh reporter assay; type: cell-based; conditions: 1 μM vismodegib, C3H10T½ cells
[5] = system: SMO-T241M expressing CGNPs; assay: PPT CGNP proliferation, methyl-[3H]-thymidine incorporation; type: cell-based, mouse; conditions: vismodegib dose response after removal of SHH ligand
[6] = system: advanced BCC patients; conditions: ref Chang and Oro, 2012; cited from earlier work
[7] = system: SMO-D473H; conditions: mutation from relapsed metastatic MB; ref Yauch et al., 2009; cited from earlier work
[8] = biological target: SMO-S387N (Homo sapiens, UniProt Q99835, S387N); assay: Gli-luciferase based Hh reporter assay; type: cell-based; conditions: 1 μM vismodegib, C3H10T½ cells
[9] = system: SMO-A459V expressing CGNPs; assay: PPT CGNP proliferation, methyl-[3H]-thymidine incorporation; type: cell-based, mouse; conditions: vismodegib dose response after removal of SHH ligand
[10] = system: PPT CGNPs infected with SMO DBP mutants; assay: as above; type: cell-based, mouse; conditions: high levels of vismodegib (>1 μM)
[11] = system: PPT CGNPs infected with SMO-C469Y; assay: as above; type: cell-based, mouse; conditions: 5 μM vismodegib
[12] = system: SMO-W535L expressing CGNPs; assay: as above; type: cell-based, mouse; conditions: vismodegib dose response after removal of SHH ligand
[13] = biological target: SMO-I408V (Homo sapiens, UniProt Q99835, I408V); assay: [3H]-vismodegib binding to transfected HEK-293 cells; conditions: compared with SMO-WT at similar cell surface levels
[14] = biological target: SMO-D384N (Homo sapiens, UniProt Q99835, D384N); assay: Gli-luciferase based Hh reporter assay; type: cell-based; conditions: 1 μM vismodegib, C3H10T½ cells
Chain of SMO-D384N (Q99835 28-787 D384N): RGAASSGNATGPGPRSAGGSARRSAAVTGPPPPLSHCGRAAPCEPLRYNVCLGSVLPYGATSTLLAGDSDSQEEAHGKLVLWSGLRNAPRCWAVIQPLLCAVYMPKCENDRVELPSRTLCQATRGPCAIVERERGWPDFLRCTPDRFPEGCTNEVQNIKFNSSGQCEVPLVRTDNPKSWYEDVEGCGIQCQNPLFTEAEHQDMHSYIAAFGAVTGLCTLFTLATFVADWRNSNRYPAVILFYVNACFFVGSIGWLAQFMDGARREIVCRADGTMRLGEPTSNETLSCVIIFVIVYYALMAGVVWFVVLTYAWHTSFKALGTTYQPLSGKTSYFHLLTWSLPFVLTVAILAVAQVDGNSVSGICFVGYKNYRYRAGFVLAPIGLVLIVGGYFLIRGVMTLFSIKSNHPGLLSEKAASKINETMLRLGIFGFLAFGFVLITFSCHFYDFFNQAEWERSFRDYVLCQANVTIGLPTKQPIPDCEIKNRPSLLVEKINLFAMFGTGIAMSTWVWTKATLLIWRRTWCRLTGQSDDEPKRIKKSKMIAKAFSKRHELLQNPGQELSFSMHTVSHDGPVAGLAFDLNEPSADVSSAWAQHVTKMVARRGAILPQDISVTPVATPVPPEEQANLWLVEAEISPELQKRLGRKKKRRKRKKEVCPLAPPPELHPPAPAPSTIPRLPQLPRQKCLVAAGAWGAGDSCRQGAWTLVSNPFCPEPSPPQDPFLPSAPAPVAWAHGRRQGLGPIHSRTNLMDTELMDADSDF

Chain of SMO-I408V (Q99835 28-787 I408V): as the sequence (Q99835 28-787 D384N) above, with N357D, I381V counted along it
Chain of SMO-S387N (Q99835 28-787 S387N): as the sequence (Q99835 28-787 D384N) above, with N357D, S360N counted along it
Chain of SMO-N219D (Q99835 28-787 N219D): as the sequence (Q99835 28-787 D384N) above, with N192D, N357D counted along it

Compound: Cc1sc2c(c1C)C(c1ccc(Cl)cc1)=N[C@@H](CC(=O)OC(C)(C)C)c1nnc(C)n1-2 [JQ1]
- proliferation in the presence of bromodomain inhibitor ([1]; 1 μM JQ1): reduced proliferation

Compound: Cc1c(C(=O)Nc2ccc(N3C[C@@H](C)O[C@@H](C)C3)nc2)cccc1-c1ccc(OC(F)(F)F)cc1 [LDE225, sonidegib]
- proliferation in the presence of SMO inhibitor [2]: similarly inhibited the proliferation
- proliferation in the presence of SMO inhibitor [1]: continued to proliferate, albeit to differing extents

Compound: CN(C(=O)c1ccc(F)cc1C(F)(F)F)C1CCN(c2nnc(-c3ccnn3C)c3ccccc23)CC1 [LY2940680]
- proliferation in the presence of SMO inhibitor [2]: similarly inhibited the proliferation
- proliferation in the presence of SMO inhibitor [1]: continued to proliferate, albeit to differing extents

Compound: CS(=O)(=O)c1ccc(C(=O)Nc2ccc(Cl)c(-c3ccccn3)c2)c(Cl)c1 [vismodegib]
- vismodegib binding [3]: impaired vismodegib binding
- IC50 ([2]; Mus musculus, read-out: IC50, proliferation): ~22 nM
- concentration at which proliferation was maximally inhibited ([2]; after removal of SHH ligand): 100 nM
- sensitivity to vismodegib compared to SMO-WT [4]: reduced sensitivity
- proliferation in the presence of vismodegib [5]: continued to proliferate at high concentrations of vismodegib
- estimated incidence of secondary, or acquired, resistance in BCC [6]: ~ 20 % per year
- drug binding in vitro [7]: abrogate drug binding
- sensitivity to vismodegib compared to SMO-WT [8]: reduced sensitivity
- proliferation in the presence of vismodegib [9]: continued to proliferate at high concentrations of vismodegib
- proliferation in the presence of vismodegib [10]: continuing to proliferate at high levels of vismodegib
- proliferation in the presence of vismodegib [11]: continued to proliferate at near untreated levels
- proliferation in the presence of vismodegib [12]: continued to proliferate at high concentrations of vismodegib
- [3H]-vismodegib binding [13]: impaired vismodegib binding
- sensitivity to vismodegib compared to SMO-WT [14]: reduced sensitivity
